Values of other authors as cited in patent US20070232672A1, “Pharmaceutical Composition And Method For Treating Neurodegenerative Disorders” (Myriad Genetics, Incorporated, priority 2004, published 2007).
Where two headings read alike, the source gives them in different places.

Legend:
[1] = test system: Aβ42; conditions: transgenic mouse model, Koo et al.
[2] = test system: COX
[3] = 50 mg and 100 mg doses, human subjects, Lotsch et al.
[4] = test system: Aβ42; conditions: CHO cells, Koo et al.
[5] = for efficacy for treating AD: clinical trial (Aisen et al., Reines et al.), rofecoxib at 25 mg daily
[6] = Scali et al.
[7] = patients having mild cognitive impairment

For C[C@@H](C(=O)O)c1ccc(-c2ccccc2)c(F)c1 [(R)-2-(2-fluoro-4-biphenylyl)propionic acid], the Aβ42 lowering [1] is given as “lower Aβ42”, the “inhibition of COX activity” value [2] is given as “negligibly inhibits COX activity” and the analgesic effect [3] is given as “produced an analgesic effect”. For the same compound, the Aβ42 lowering [4] was “lower Aβ42”.

For COc1ccc2cc([C@H](C)C(=O)O)ccc2c1 [Naproxen], the “efficacy for treating AD” value [5] is given as “failed to show efficacy”.

For CC12CC3CC(C)(C1)CC(N)(C3)C2 [memantine], the “efficacy in treating mild-to-moderate AD” value ([5]; mild-to-moderate AD) is listed as “showed efficacy”.

For CS(=O)(=O)c1ccc(C2=C(c3ccccc3)C(=O)OC2)cc1 [rofecoxib], the neuroprotection [6] is given as “provides neuroprotection”, the “efficacy for treating AD” value [5] is given as “failed to show efficacy” and the “prevention of the development of Alzheimer's disease” value ([7]; large prevention trial) is given as “failed to prevent the development of Alzheimer's disease”. The “patients who developed AD” value ([7]; placebo 4.5%) was 6.4%.
